{"source": "patent US5747493A", "about": "“Dopamine re-uptake inhibitor” (Pola Chemical Industries, Inc., priority 1993, dated 1998)", "key": {"[1]": {"system": "[^3 H]-DA re-uptake", "experiment": "inhibition of [^3 H]-DA re-uptake in corpus striatum homogenate", "assay_type": "biochemical, Sprague-Dawley rats", "conditions": "for amount of DA re-uptake: 2 min", "experimental": "Investigation as to inhibition of [^3 H]-DA re-uptake\nCorpus striatum samples of Sprague-Dawley rats (SD rats) were used to investigate the inhibition of [^3 H]-DA re-uptake.\nMore specifically, after an SD rat (aged 8 weeks, male) was decapitated, its corpus striatum was taken out while keeping on ice. A Krebs-Henseleit buffer in an amount ten times of the corpus striatum was added thereto to homogenize the resultant mixture by means of a Teflon homogenizer, thereby obtaining a homogenate. To this homogenate, were added nialamide as a monoamine oxidase inhibitor, ascorbic acid as an antioxidant and a test agent to preincubate the resulting mixture at 37° C. for 5 minutes. […] After the reaction mixture was filtered by means of a cell harvester in which a filter had been set, the filter was washed twice with physiological saline. The washed filter was placed in a vial, and 10 ml of Aquazol-2 were added to leave the filter to stand overnight. Thereafter, the radioactivity of the sample was measured by a liquid scintillation counter.\nCompound 1 according to the present invention was used as a test agent. The test agent was prepared into a 10^-2 M solution in dimethyl sulfoxide, and the solution was diluted with a Krebs-Henseleit buffer before its use. With the concentrations of the test substances, 11 points were selected within a range of from 10^-10 M to 10^-5 M to plot the concentration versus the amount of DA re-uptake. From this plot, an IC50 value was determined."}, "[2]": {"system": "Wistar rats (male)", "experiment": "quantity of spontaneous movement", "assay_type": "in vivo", "conditions": "intraperitoneal, 3 hours; for Number of times of rising: control 2; for Number of times of traversing: control 20", "excerpt": "Determination of quantity of spontaneous movement\nWistar rats (male) aged 7 weeks were used to confirm the effect of Compound 1 on spontaneous movement. […] The number of times of traversing sections of a floor and the number of times of rising were used as indices of the quantity of movement. The test agent was used in doses of from 0.1 mmol/kg down to 0.01 mmol/kg. Besides, physiological saline alone was used as a control."}}, "note": "pIC50: −log10 of the molar value. Where a name gives a salt, the structure may show the parent alone."}
{"smiles": "OC(CNc1ccccc1)CN1CCN(CCCC(c2ccc(F)cc2)c2ccc(F)cc2)CC1", "note": "(stereo not drawn) [Compound 1, 1-[4,4-Bis(4-fluorophenyl)-butyl]-4-(2-hydroxy-3-phenyl-aminopropyl)piperazinedihydrochloride]", "values": [{"measurement": "pIC50", "setting": "[1]; SD rat corpus striatum homogenate, 37° C., 2 minutes reaction", "result": 8.17}, {"measurement": "amount of DA re-uptake", "setting": "[1]; concentration of test substance -log (mol) 6, 1 µM", "result": 0, "unit": "%"}, {"measurement": "amount of DA re-uptake", "setting": "[1]; concentration of test substance -log (mol) 6.5, 0.316 µM", "result": 0, "unit": "%"}, {"measurement": "amount of DA re-uptake", "setting": "[1]; concentration of test substance -log (mol) 7, 0.1 µM", "result": 2, "unit": "%"}, {"measurement": "amount of DA re-uptake", "setting": "[1]; concentration of test substance -log (mol) 8, 0.01 µM", "result": 38, "unit": "%"}, {"measurement": "amount of DA re-uptake", "setting": "[1]; concentration of test substance -log (mol) 9, 0.001 µM", "result": 80, "unit": "%"}, {"measurement": "amount of DA re-uptake", "setting": "[1]; concentration of test substance -log (mol) 10, 0.0001 µM", "result": 92, "unit": "%"}, {"measurement": "inhibition of DA re-uptake (in words)", "setting": "[1]; conclusion from IC50 and Table 3", "result": "potent activities of inhibiting DA re-uptake"}, {"measurement": "Number of times of rising", "setting": "[2]; 0.01 mmol/kg", "result": 69, "unit": "times"}, {"measurement": "Number of times of traversing", "setting": "[2]; 0.01 mmol/kg", "result": 253, "unit": "times"}, {"measurement": "Number of times of rising", "setting": "[2]; 0.03 mmol/kg", "result": 156, "unit": "times"}, {"measurement": "Number of times of traversing", "setting": "[2]; 0.03 mmol/kg", "result": 267, "unit": "times"}, {"measurement": "Number of times of rising", "setting": "[2]; 0.1 mmol/kg", "result": 121, "unit": "times"}, {"measurement": "Number of times of traversing", "setting": "[2]; 0.1 mmol/kg", "result": 287, "unit": "times"}, {"measurement": "quantity of spontaneous movement (in words)", "setting": "[2]; 0.01 to 0.1 mmol/kg, hydrochloride", "result": "enhances the quantity of the spontaneous movement to a marked extent"}]}
